Laboratory results reported in patent US5607934A, “Piperazine derivatives and salts thereof” (Otsuka Pharmaceutical Co., Ltd., priority 1993, dated 1997).
Values after ≈ are worked out from the molar mass of the structure shown.

Columns and labels:
[1] = test system: releasing of lysozomal enzyme from the neutrocytes of rat; experiment: Inhibitory effect against the releasing of lysozomal enzyme from the neutrocytes of rat; format: cell-based; conditions: rat neutrocytes 5×10^5 cells/ml; FMLP 10^-6 M + cytocharasin B 5 μg/ml; OD540
Description: Inhibitory effect against the releasing of lysozomal enzyme from the neutrocytes of rat
The neutrocytes of rat were samples from the abdominal cavity of rat 16 hours after the administration of 10 ml of 1% casein solution (physiological saline solution).
Reaction of the releasing of lysozomal enzyme from the neutrocytes of rat was determined by means of the method as described in an article written by T. Matsumoto, K. Takeshige and S. Minakami: Biochemical and Biophysical Research Communications, Vol. 88, No. 3, pp 974-979, (1979).
The neutrocytes being sampled were added to Hank's solution so as to make the concentration thereof as 5×10^5 cells/ml, the test compound of piperazine derivative of the present invention was added thereto to make the test group sample. On the other hand, water was added in place of the piperazine derivative of the present invention to make the control group sample. Each of the test group samples and the control group samples were subjected to pre-incubation at 37° C. for 1 minute.
As to the stimulating agents, 10^-6 M of FMLP (formylmethionyl leucyl phenylalanine) and 5 μg/ml of cytocharasin B solution were added to the test solutions. Thus obtained mixture of the solution was reacted by incubating for 15 minutes. After the incubation, the mixture of the solution was subjected to centrifugation at 2,000 rpm for 10 minutes. The supernatant (0.2 ml) was admixed with 0.5 ml of 0.1 M-acetic acid buffer solution (pH 4.5) in which 0.2 mM of phenolphthalein glucuronic acid was dissolved. Then the resulting mixture of the solution was reacted at 37° C. for 5 hours by incubation. After the reaction, 1N-NaOH solution was added to the reaction mixture so as to make the pH value thereof to pH 8 to 9, and the optical absorbance of both test group samples and control group samples were determined at 540 nm (OD540).
The 50% inhibitory concentration (IC50) values were obtained by calculation as the ratio of OD540 of the test group sample to that of the control group sample.

[2] = test system: superoxide radicals (O2^-) released from the peritoneal macrophage cells of guinea pig; experiment: Inhibitory effect against superoxide radicals (O2^-) released from the peritoneal macrophage cells of guinea pig by stimulation (FMLP); format: cell-based; conditions: Cavia porcellus, Peritoneal macrophage cell; guinea pig peritoneal macrophages 2×10^6 cells/ml; FMLP 10^-7 M; cytochrome C reduction, OD550
Description: Inhibitory effect against superoxide radicals (O2^-) released from the peritoneal macrophage cells of guinea pig by stimulation:
Mineral oil (15 ml)was intraperitoneally administered to a guinea pig, then 96 hours after the administration, the peritoneal macrophage cells were sampled.
Superoxide radicals (O2^-) were determined by means of reduction of cytochrome C method according to the procedure described in an article written by T. Matsumoto, K. Takeshige and S. Minakami: Biochemical and Biophysical Research Communications, Vol. 88, No. 3, pp. 974-979, (1979).
Into 1 ml of 80 μM-cytochrome C solution, the peritoneal macrophage cells were added to make the final concentration of 2×10^6 cells/ml, then each one of the test compounds of the present invention was added thereto to make the test group sample. On the other hand, water was added in place of the test compound of the present invention to make the control group sample. Each of the test group samples and the control group samples were subjected to pre-incubation at 37° C. for 1 minute.
As to the stimulating agent for releasing superoxide radicals (O2^-), FMLP (formylmethionyl leucyl phenylalanine)was added to each one of the test sample solutions and the control group samples to make the final concentration of FMLP to 10^-7 M, then the sample solutions were subjected to additional reaction by incubation for 1 minute.
Difference between the optical absorbances measured at 550 nm (OD550) of both test group samples and control group samples were determined, the 50% inhibitory concentration (IC50) was obtained by calculating as the ratio of OD550 of the test group sample to that of the control group sample.

[3] = test system: releasing of hydrogen peroxide (H2 O2) from the neutrocyte of abdominal cavity of rat; experiment: Inhibitory effect against the releasing of hydrogen peroxide (H2O2) from the neutrocyte of abdominal cavity of rat; format: cell-based, SD-strain rat; conditions: rat neutrocytes 10^6 cells/ml; FMLP 2×10^-6 M; 37° C., 1 hour; OD610
Description: Inhibitory effect against the releasing of hydrogen peroxide (H2 O2) from the neutrocyte of abdominal cavity of rat
1%-Casein solution was administered to the abdominal cavity of a SD-strain rat, then 16 hours after the administration, the neutrocytes were obtained by washing the abdominal cavity. Thus obtained neutrocytes were washed with Hank's solution.
In to a reaction mixture consisting of the following ingredients:
______________________________________
HRP (Horse Radish peroxide)
HEPES [N-(2-Hydroxyethyl)pipera-
zine N'-2-ethanesulfonic acid]
Rat neutrocytes 10^6 cells/ml
the test compound was added, then the whole mixture was incubated at 37° C. for 1 hour, and the mixture was subjected to a centrifugal separation at 2,000 rpm for minutes. After the centrifugal separation, 1 ml of the supernatant was sampled and 10 μl of 1N-NaOH aqueous solution was added thereto. Then, the optical absorbance at 610 nm (OD610) of the supernatant was determined by means of using a spectro-photometer.
The IC50 (50% inhibitory concentration) of the test compound was obtained by calculating as the ratio of OD610 of the test group sample to that of the control group sample.

| Compound | IC50 [1] [µg/mL] | IC50 [3] [µg/mL] | IC50 [2] [µg/mL] |
| --- | --- | --- | --- |
| COc1cc(C[C@@H]2NC(=O)[C@H](CC(C)C)N(O)C2=O)cc(OC)c1OC (relative stereo) [Example 15] | – | < 3 | – |
| COc1cc(C[C@@H]2NC(=O)[C@@H](CC(C)C)N(O)C2=O)cc(OC)c1OC (relative stereo) [Example 16] | – | < 3 | 30 (≈ 81.9 µM) |
| COc1cc(C[C@@H]2NC(=O)[C@H](CC(C)C)N(O)C2=O)cc(OC)c1O (relative stereo) [Example 17] | – | < 3 | – |
| COc1ccc(C[C@@H]2NC(=O)[C@H](CC(C)C)N(O)C2=O)c(OC)c1 (relative stereo) [Example 18] | – | 5 (≈ 14.9 µM) | – |
| COc1ccc(C[C@@H]2NC(=O)[C@@H](CC(C)C)N(O)C2=O)c(OC)c1 (relative stereo) [Example 19] | – | 5 (≈ 14.9 µM) | 30 (≈ 89.2 µM) |
| CCOC(=O)[C@H]1NC(=O)[C@@H](Cc2c[nH]c3ccccc23)N(O)C1=O (relative stereo) [Example 55] | – | 3 (≈ 9.05 µM) | – |
| CC(C)C[C@@H]1C(=O)N[C@@H](Cc2ccccc2)C(=O)N1O [Example 10, (3S,6R)-3-Benzyl-1-hydroxy-6-isobutylpiperazine-2,5-dione] | – | – | 18 (≈ 65.1 µM) |
| CC(C)C[C@H]1C(=O)N[C@@H](Cc2cc(Cl)c(O)c(Cl)c2)C(=O)N1O [Example 20] | 30 | – | 30 (≈ 83.1 µM) |
| CC(C)C[C@@H]1C(=O)N[C@@H](Cc2cc(Cl)c(O)c(Cl)c2)C(=O)N1O [Example 21] | – | 10 (≈ 27.7 µM) | – |
| CC(C)C[C@@H]1NC(=O)[C@H](Cc2c[nH]c3ccccc23)N(O)C1=O [Example 47, (3S,6S)-1-Hydroxy-6-(3-indolylmethyl)-3-isobutylpiperazine-2,5-dione] | – | – | 10 (≈ 31.7 µM) |
| CC(C)C[C@@H]1NC(=O)[C@@H](Cc2c[nH]c3ccccc23)N(O)C1=O [Example 48, (3S, 6R)-1-Hydroxy-6-(3-indolylmethyl)-3-isobutylpiperazine-2,5-dione] | – | < 3 | – |
| CSCC[C@@H]1NC(=O)[C@H](Cc2c[nH]c3ccccc23)N(O)C1=O [Example 51] | – | 3 (≈ 9 µM) | 3 (≈ 9 µM) |
| CSCC[C@@H]1NC(=O)[C@@H](Cc2c[nH]c3ccccc23)N(O)C1=O [Example 52] | – | – | 6 (≈ 18 µM) |
| O=C1N[C@@H](COCc2ccccc2)C(=O)N(O)[C@H]1Cc1c[nH]c2ccccc12 [Example 53] | – | – | 30 (≈ 79.1 µM) |
| O=C1N[C@@H](Cc2ccc(O)cc2)C(=O)N(O)[C@H]1Cc1c[nH]c2ccccc12 [Example 60] | – | 6 (≈ 16.4 µM) | 10 (≈ 27.4 µM) |
| O=C1[C@@H]2CCCN2C(=O)[C@H](Cc2c[nH]c3ccccc23)N1O [Example 64] | – | < 3 | – |

Second part, led by results:

| IC50 [1] [µg/mL] | IC50 [3] [µg/mL] | Compound | IC50 [2] [µg/mL] |
| --- | --- | --- | --- |
| 3 | – | CC(C)C[C@H]1C(=O)N[C@](Cc2ccccc2)(C(=O)Nc2nc3ccccc3s2)C(=O)N1O (racemic) [Example 27, (3RS,6SR)-3-(benzothiazol-2-yl)carbamoyl-3-benzyl-1-hydroxy-6-isobutylpiperazine-2,5-dione] | 0.25 (≈ 0.552 µM) |
| 2 | 5 (≈ 13.8 µM) | COc1cccc(CNC(=O)[C@@]2(C)NC(=O)[C@H](CC(C)C)N(O)C2=O)c1 (racemic) [Example 29, (3RS,6SR)-1-hydroxy-6-isobutyl-3-[N-(3-methoxybenzyl)]carbamoyl-3-methylpiperazine-2,5-dione] | 3 (≈ 8.26 µM) |
| 3 | – | COc1cccc(CNC(=O)[C@]2(Cc3ccccc3)NC(=O)[C@@H](CC(C)C)N(O)C2=O)c1 (relative stereo) [Example 28] | 3 (≈ 6.83 µM) |
| – | < 6 | CC(C)C[C@H]1C(=O)N[C@@H](Cc2ccccc2)C(=O)N1O [Example 9, (3S, 6s)-3-benzyl-1-hydroxy-6-isobutylpiperazine-2,5-dione] | – |
| – | 6 (≈ 20.5 µM) | CC(C)C[C@@H]1C(=O)N[C@@H](Cc2ccc(O)cc2)C(=O)N1O [Example 11] | – |
| – | 3 (≈ 8.42 µM) | CC(C)C[C@@H]1C(=O)N[C@@H](Cc2cn(Cc3ccccc3)cn2)C(=O)N1O [Example 26] | 6 (≈ 16.8 µM) |
| – | < 3 | O=C1N[C@@H](Cc2ccccc2)C(=O)N(O)[C@H]1Cc1c[nH]c2ccccc12 [Example 49] | 10 (≈ 28.6 µM) |
| – | < 3 | O=C1N[C@@H](Cc2ccccc2)C(=O)N(O)[C@@H]1Cc1c[nH]c2ccccc12 [Example 50] | – |
| – | 3 (≈ 7.91 µM) | O=C1N[C@@H](COCc2ccccc2)C(=O)N(O)[C@@H]1Cc1c[nH]c2ccccc12 [Example 54] | – |
